Test results from BindingDB's records for doi:10.1016/j.bmc.2014.01.014 (Shenyang Pharmaceutical University, 2014).

molecular target: Hepatocyte growth factor receptor (Homo sapiens, UniProt P08581); test: Inhibition of c-Met (unknown origin) using poly (Glu, Tyr) 4:1 after 30 mins by HTRF assay

| SMILES | IC50 [nM] |
| --- | --- |
| COc1cc2c(Oc3ccc(N=Cc4c(O)n(-c5ccc(C)cc5)c(=O)[nH]c4=O)cc3F)ccnc2cc1OCCCN1CCN(C)CC1 | 2.7 |
| COc1cc2c(Oc3ccc(N=Cc4c(O)n(-c5ccc(F)cc5F)c(=O)[nH]c4=O)cc3F)ccnc2cc1OCCCN1CCOCC1 | 12 |
| COc1cc2c(Oc3ccc(N=Cc4c(O)n(-c5ccc(F)cc5F)c(=O)[nH]c4=O)cc3F)ccnc2cc1OCCCN1CCCC1 | 12 |
| COc1cc2c(Oc3ccc(N=Cc4c(O)n(-c5ccc(F)cc5)c(=O)[nH]c4=O)cc3F)ccnc2cc1OCCCN1CCCC1 | 2.7 |
